A value given as a limit tells only on which side of the number the result lay.

Broadly, the EC50 is the concentration giving half of the maximal effect.

The target in this experiment is T1, TDO2 (Homo sapiens, UniProt P48775).
T1 construct: decreased levels of NFK in SW48 cells (high TDO expressing cells)
T1 sequence (P48775 whole entry): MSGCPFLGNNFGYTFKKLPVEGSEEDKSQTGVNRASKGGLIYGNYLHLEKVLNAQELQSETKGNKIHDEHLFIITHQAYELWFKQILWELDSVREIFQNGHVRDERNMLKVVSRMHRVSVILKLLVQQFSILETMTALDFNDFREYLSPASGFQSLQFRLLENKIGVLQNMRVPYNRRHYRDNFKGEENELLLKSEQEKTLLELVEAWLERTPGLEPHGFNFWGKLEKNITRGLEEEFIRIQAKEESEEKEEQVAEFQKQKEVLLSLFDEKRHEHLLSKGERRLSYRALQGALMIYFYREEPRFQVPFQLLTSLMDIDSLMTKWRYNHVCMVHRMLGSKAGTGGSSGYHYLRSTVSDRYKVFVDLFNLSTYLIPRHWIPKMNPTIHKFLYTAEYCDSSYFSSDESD
Nature of the experiment: TDO2 cell assay (NFK GreenScreen, SW48 cells). It counts as cell-based. Conditions: SW48 cells (high TDO expressing), 200 uM tryptophan, 24 hours; Table 3; read-out: TDO2 Cell Fluor EC50.
Procedure: The NFK GreenScreen™ (NTRC, Netherlands) uses a specific chemical probe that binds to N-Formylkynurenine (NFK), a product of tryptophan catabolism facilitated by IDO or TDO and causes fluorescence at 510 nm when excited at 410 nm. […] The assay is multiplexed with Cell Titer-Glo® (Promega) to determine if compounds are cytotoxic. […] Cells are counted on a Vi-Cell (Beckman Coulter). SW48 cells are diluted to 1×10^6 cells/ml in assay media. A172 cells are diluted to 0.24×10^6 cells/ml in assay media. […] 5 ul of assay media containing 1.2 mM tryptophan are added to the SW48 cells for a final concentration of 200 uM tryptophan in each well. 5 ul of assay media containing 600 uM tryptophan and 600 ng/ml IFNγ are added to the A172 cells for a final concentration of 100 uM tryptophan and 100 ng/ml IFNγ in each well. The final DMSO concentration is 0.5%. Cell plates are placed at room temperature in a closed TC hood with the blower off to allow cells to settle for approximately 30 min. Plates are then moved to an incubator set at 37° C., 5% CO2 for 24 hours. After the 24 hour compound incubation, 8 ul of NFK green reagent is added to each well with a Multidrop™ Combi dispenser (Thermo Scientific). Plates are sealed and incubated at 37° C., 5% CO2 for 5 hours, then read on a PHERAstar® (BMG labtech). Data are analyzed by normalizing to DMSO and high inhibitor controls. After the plates have been read for NFK green, 25 ul of Cell Titer-Glo® (Promega) are added to each well, incubated for 15 minutes at room temperature, and read on the Envision (Perkin Elmer). Cell Titer-Glo data are analyzed by normalizing to the DMSO controls. Four-parameter curve fitting is used and EC50 data are reported.
Turning to `NS(=O)(=O)c1ccc2c(c1)C(O)C(C1c3ccccc3-c3cncn31)CC2` (single isomer, unassigned) [Example 105b], the EC50 came to 8600 nM.
Consider `OC1CCCC1C1c2ccc(F)cc2-c2cncn21` (single isomer, unassigned) [Example 20a], for which the half-maximal effective concentration (EC50) is above 25000 nM.
In the case of `Cc1nc2c(o1)CCC(C1c3ccccc3-c3cncn31)C2O` (single isomer, unassigned) [Example 168a], the EC50 was 140 nM.
Consider `O[C@@H]1[C@@H]([C@H]2c3ccccc3-c3cncn32)CCCC1(F)F` (single isomer, unassigned) [Example 106d], for which the 50% effective concentration (EC50) worked out at 930 nM.
In the case of `OC1c2cnnn2CCC1C1c2ccccc2-c2cncn21` (single isomer, unassigned) [Example 139b], the EC50 stood at 1000 nM.
The same measure for `OC1CC2(CCC2)C1C1c2ccccc2-c2cncn21` (single isomer, unassigned) [Example 67f]: 46 nM.
Consider `O[C@@H]1c2c(F)cnn2CC[C@H]1[C@H]1c2ccccc2-c2cncn21` (single isomer, unassigned) [Example 151d], for which the half-maximal effective concentration (EC50) amounted to 130 nM.
As to `OC1CCC(F)(F)CC1C1c2ccccc2-c2cncn21` (single isomer, unassigned) [Example 18c, 4,4-difluoro-2-(5H-imidazo[5,1-a]isoindol-5-yl)cyclohexan-1-ol], the concentration giving a half-maximal response (EC50) turned out to be 320 nM.
Regarding `CS(=O)(=O)c1ccc2c(c1)OCC(C1c3ccccc3-c3cncn31)C2O` (single isomer, unassigned) [Example 91g], the EC50 came to 2300 nM.
Take `NC(=O)c1ccc2c(n1)CCC(C1c3ccccc3-c3cncn31)C2O` (single isomer, unassigned) [Example 104g]: the EC50 came out at 330 nM.
Regarding `N#Cc1ccc2c(c1)[C@H](O)[C@H]([C@@H]1c3ccccc3-c3cncn31)CC2` (stereo in doubt) [Example 113e, (7S,8R)-8-hydroxy-7-((R)-5H-imidazo[5,1-a]isoindol-5-yl)-5,6,7,8-tetrahydronaphthalene-2-carbonitrile], the EC50 was 1300 nM.
On to `OC1CCCC1C1c2ccc(F)cc2-c2cncn21` (single isomer, unassigned) [Example 20d], for which the EC50 was found to be 99 nM.
For the compound `N#Cc1cnc2c(c1)CCC(C1c3ccccc3-c3cncn31)C2O` (single isomer, unassigned) [Example 107f], the EC50 is 420 nM.
The same measure for `OC1CCCOCC1C1c2ccccc2-c2cncn21` (single isomer, unassigned) [Example 86a]: 14000 nM; for `CC1(C)C[C@H](O)[C@H]1[C@@H]1c2ccccc2-c2cncn21` [Example 22c, (1S,2R)-2-((R)-5H-imidazo[5,1-a]isoindol-5-yl)-3,3-dimethylcyclobutan-1-ol]: above 25000 nM; for `CC1(C)CCC(C2c3ccccc3-c3cncn32)C1O` (single isomer, unassigned) [Example 23d]: 110 nM.
In the case of `CC(=O)N1CC[C@@H](O)[C@H]([C@@H]2c3ccccc3-c3cncn32)C1` (single isomer, unassigned) [Example 12d], the concentration for a half-maximal effect (EC50) is above 25000 nM.
With `O[C@H]1c2ccccc2CC[C@@H]1[C@@H]1c2ccccc2-c2cncn21` [Example 102f, (1R,2R)-2-((R)-5H-imidazo[5,1-a]isoindol-5-yl)-1,2,3,4-tetrahydronaphthalen-1-ol], the 50% effective concentration (EC50) is 5400 nM.
Regarding `O[C@@H]1c2c(Cl)cnn2CC[C@@H]1[C@H]1c2ccccc2-c2cncn21` (single isomer, unassigned) [Example 160d], the EC50 came to 6000 nM.
For the compound `Cc1cc2c(cn1)C(O)C(C1c3ccccc3-c3cncn31)C2` (single isomer, unassigned) [Example 59c], the concentration giving a half-maximal response (EC50) is 1600 nM.
Take `OC1CCCCC1C1c2ccc(F)cc2-c2cncn21` (single isomer, unassigned) [Example 25b]: the concentration for a half-maximal effect (EC50) is above 25000 nM.
For the compound `OC(c1ccncc1)C1c2ccccc2-c2cncn21` (single isomer, unassigned) [Example 152d], the EC50 is above 25000 nM.
In the case of `OC1c2cccn2CC[C@H]1C1c2ccccc2-c2cncn21` (stereo in doubt) [Example 136f, (7S,8S)-7-((R)-5H-imidazo[5,1-a]isoindol-5-yl)-5,6,7,8-tetrahydroindolizin-8-ol], the EC50 was determined as 360 nM.
The same measure for `O[C@@H]1CCCC[C@H]1[C@H]1c2ccccc2-c2cncn21` [Example 03b, (1R,2S)-2-((S)-5H-imidazo[5,1-a]isoindol-5-yl)cyclohexan-1-ol]: 83 nM; for `OC1CCCCCC1C1c2ccccc2-c2cncn21` (single isomer, unassigned) [Example 115b, 2-(5H-imidazo[5,1-a]isoindol-5-yl)cycloheptan-1-ol]: 3400 nM.
Regarding `NS(=O)(=O)c1ccc2c(c1)C(O)C(C1c3ccccc3-c3cncn31)CC2` (single isomer, unassigned) [Example 105d], the EC50 came out at 44 nM.
Regarding `OC1CC2(COC2)C1C1c2ccccc2-c2cncn21` (single isomer, unassigned) [Example 87g], the EC50 turned out to be 240 nM.
With `NC(=O)C1CCC(O)(C2c3ccccc3-c3cncn32)CC1` (single isomer, unassigned) [Example 140d], the EC50 stood at 3500 nM.
The same measure for `CS(=O)(=O)N1CCC(O)C(C2c3ccc(F)cc3-c3cncn32)C1` (single isomer, unassigned) [Example 118d]: above 25000 nM; for `OC1CCCOCC1C1c2ccccc2-c2cncn21` (single isomer, unassigned) [Example 86g]: 840 nM.
As to `Nc1cc2n(n1)CCC(C1c3ccccc3-c3cncn31)C2O` [Example 161d, (4S,5R)-2-amino-5-((S)-5H-imidazo[5,1-a]isoindol-5-yl)-4,5,6,7-tetrahydropyrazolo[1,5-a]pyridin-4-ol], the concentration for a half-maximal effect (EC50) was 12000 nM.
The same measure for `CC1(C)OCC(C2c3ccccc3-c3cncn32)C1O` (single isomer, unassigned) [Example 85a]: 24000 nM; for `CC1(O)CCOCC1C1c2ccccc2-c2cncn21` (single isomer, unassigned) [Example 61a]: 570 nM; for `Cn1cc2c(n1)C(O)C(C1c3ccccc3-c3cncn31)CC2` (single isomer, unassigned) [Example 139-1f]: 210 nM.
In the case of `CC1(C)CCCC(C)(C2c3ccccc3-c3cncn32)C1O` (single isomer, unassigned) [Example 90a], the EC50 is above 25000 nM.
Turning to `OC1c2cnncc2CCC1C1c2ccccc2-c2cncn21` (single isomer, unassigned) [Example 112d], the EC50 came to 5600 nM.
In the case of `OC1c2nonc2CCC1C1c2ccccc2-c2cncn21` (single isomer, unassigned) [Example 163g], the concentration for a half-maximal effect (EC50) is 440 nM.
In the case of `NC(=O)C1CCC(O)(C2c3ccccc3-c3cncn32)CC1` (single isomer, unassigned) [Example 140c], the EC50 is above 25000 nM.
Consider `OC1c2nccn2CCC1C1c2ccccc2-c2cncn21` (single isomer, unassigned) [Example 88a], for which the concentration for a half-maximal effect (EC50) was above 25000 nM.
For the compound `Nc1ccc2c(n1)CCC(C1c3ccccc3-c3cncn31)C2O` (single isomer, unassigned) [Example 121c], the EC50 was 220 nM.
Then `N#Cc1ccc2c(c1)CCC(C1c3ccccc3-c3cncn31)C2O` (single isomer, unassigned) [Example 62f], with 2500 nM; and `CC1(O)CCOCC1C1c2ccccc2-c2cncn21` (single isomer, unassigned) [Example 61b], with 2600 nM.
As for `OC1c2cnncc2CCC1C1c2ccccc2-c2cncn21` (single isomer, unassigned) [Example 112e], the 50% effective concentration (EC50) was above 25000 nM.
With `NC(=O)c1nc2c(s1)CCC(C1c3ccccc3-c3cncn31)C2O` (single isomer, unassigned) [Example 149f], the EC50 is above 25000 nM.
The same measure for `CC(C)C(O)C1c2ccc(F)cc2-c2cncn21` (single isomer, unassigned) [Example 135a]: above 25000 nM; for `O[C@@H]1c2[nH]ncc2CC[C@H]1[C@@H]1c2ccccc2-c2cncn21` (single isomer, unassigned) [Example 157b]: 22000 nM; for `CC1(C)OCC(C2c3ccccc3-c3cncn32)C1O` (single isomer, unassigned) [Example 85c]: 11000 nM.
In the case of `Cc1ccc2c(c1)C(C1COCC1O)n1cncc1-2` (single isomer, unassigned) [Example 110a], the EC50 was determined as 520 nM.
For `CS(=O)(=O)N1CCC2(CC1)CC(C1c3ccccc3-c3cncn31)C2O` (single isomer, unassigned) [Example 179h], the EC50 amounted to 8600 nM.
Regarding `NC(=O)c1nc2c(s1)CCC(C1c3ccccc3-c3cncn31)C2O` (single isomer, unassigned) [Example 149d], the EC50 is 9600 nM.
Take `NC(=O)C1([C@H](O)[C@@H]2c3ccccc3-c3cncn32)CC1` [Example 165d, 1-((S)-hydroxy ((S)-5H-imidazo[5,1-a]isoindol-5-yl)methyl)cyclopropane-1-carboxamide]: the EC50 is above 25000 nM.
With `OC1c2cncn2CCC1C1c2ccccc2-c2cncn21` (single isomer, unassigned) [Example 07f], the EC50 was above 25000 nM.
With `N#CC1CCC(O)(C2c3ccccc3-c3cncn32)CC1` (single isomer, unassigned) [Example 145c], the EC50 is 19000 nM.
For the compound `CNS(=O)(=O)N1CC[C@@H]([C@H]2c3ccccc3-c3cncn32)[C@H](O)C1` [Example 74b, (3S,4S)-3-hydroxy-4-((S)-5H-imidazo[5,1-a]isoindol-5-yl)-N-methylpiperidine-1-sulfonamide], the EC50 turned out to be 110 nM.
With `CC(O)(c1ncc[nH]1)C1c2ccccc2-c2cncn21` (single isomer, unassigned) [Example 143c], the EC50 was 16000 nM.
Regarding `OC1c2cccn2CCC1C1c2ccccc2-c2cncn21` (single isomer, unassigned) [Example 136d], the EC50 was determined as 15000 nM.
The same measure for `O[C@@H]1c2nccnc2CC[C@H]1[C@H]1c2ccccc2-c2cncn21` (single isomer, unassigned) [Example 123a]: 24000 nM.

The record behind these values is patent publication US12583858B2 (Genentech, Inc., priority 2015, dated 2026).
